Measured values reported in ChEMBL document CHEMBL2413006, “Acyclic phosph(on)ate inhibitors of Plasmodium falciparum hypoxanthine-guanine-xanthine phosphoribosyltransferase” (Bioorg Med Chem, 2013).

Legend:
[1] = Inhibition of Plasmodium falciparum HGXPRT assessed as xanthine/guanine conversion to xanthosine-5'-monophosphate/guanosine-5'-monophosphate by spectrophotometry in presence of PRPP
[2] = biological target: T1, Hypoxanthine-guanine phosphoribosyltransferase (Homo sapiens, UniProt P00492); experiment: Inhibition of human HGPRT using xanthine/PRPP assessed as xanthine/guanine conversion to […]guanosine-5'-monophosphate by spectrophotometry in presence of PRPP
T1 sequence (P00492 whole entry): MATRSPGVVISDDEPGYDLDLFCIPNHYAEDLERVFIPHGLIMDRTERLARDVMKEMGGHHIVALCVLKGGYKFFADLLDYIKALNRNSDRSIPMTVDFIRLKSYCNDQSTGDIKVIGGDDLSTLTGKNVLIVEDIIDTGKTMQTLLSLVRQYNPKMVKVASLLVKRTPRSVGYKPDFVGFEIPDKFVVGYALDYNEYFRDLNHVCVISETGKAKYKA

Ki [2] [nM] | Structure (SMILES) | Ki [1] [nM]
> 10000 | O=c1[nH]cnc2c(CNC(CO)(CO)COP(=O)(O)O)c[nH]c12 | 15300
> 10000 | O=c1[nH]cnc2c(CN[C@H](CO)COP(=O)(O)O)c[nH]c12 | 2.4
> 10000 | Nc1nc2c(CN[C@H](CO)COP(=O)(O)O)c[nH]c2c(=O)[nH]1 | 14.3
> 10000 | Nc1nc2c(CN[C@@H](CO)COP(=O)(O)O)c[nH]c2c(=O)[nH]1 | 650
> 10000 | O=c1[nH]cnc2c(CN[C@H](CO)[C@H](O)COP(=O)(O)O)c[nH]c12 | 980
> 10000 | O=c1[nH]cnc2c(CNCCCCP(=O)(O)O)c[nH]c12 | 490
> 10000 | O=c1[nH]cnc2c(CNCCCCCP(=O)(O)O)c[nH]c12 | 8600
> 10000 | O=c1[nH]cnc2c(CNCCCP(=O)(O)O)n[nH]c12 | 27.6
> 10000 | O=c1[nH]cnc2c(CCNCCP(=O)(O)O)c[nH]c12 | 620
11300 | O=c1[nH]cnc2c(CCNCCCP(=O)(O)O)c[nH]c12 | > 20000
 | O=c1[nH]cnc2c(CN[C@H](CO)CCP(=O)(O)O)c[nH]c12 | 0.65
 | O=c1[nH]cnc2c(CN[C@@H](CO)CCP(=O)(O)O)c[nH]c12 | 23.4
> 10000 | O=c1[nH]cnc2c(CN[C@H](CO)CC(F)(F)P(=O)(O)O)c[nH]c12 | 87
> 10000 | Nc1nc2c(CN[C@H](CO)CC(F)(F)P(=O)(O)O)c[nH]c2c(=O)[nH]1 | 100
> 10000 | O=c1[nH]cnc2c(CNCCOP(=O)(O)O)c[nH]c12 | 14400
> 10000 | O=c1[nH]cnc2c(CNCP(=O)(O)O)c[nH]c12 | > 20000
> 10000 | O=c1[nH]cnc2c(CNCCP(=O)(O)O)c[nH]c12 | 1900
4900 | O=c1[nH]cnc2c(CNCCCP(=O)(O)O)c[nH]c12 | 10.6
 | O=c1[nH]cnc2c(CN[C@H](CO)CC(F)P(=O)(O)O)c[nH]c12 (mixture of isomers) | 1.2
> 10000 | O=c1[nH]cnc2c(CNCC(CO)CP(=O)(O)O)c[nH]c12 (racemic) | 490
> 10000 | O=c1[nH]cnc2c(CNC(CO)COP(=O)(O)O)c[nH]c12 (racemic) | 19
> 10000 | O=c1[nH]c(Cl)nc2c(CNC(CO)COP(=O)(O)O)c[nH]c12 (racemic) | 9400

Structure (SMILES) | Ki [2] [nM] | Ki [1] [nM]
O=c1[nH]cnc2c(CNCC(O)CP(=O)(O)O)c[nH]c12 (racemic) | > 10000 | 9.1
